Source: patent US11419870B2, “Intermittent dosing of MDM2 inhibitor” (Novartis AG, priority 2014, dated 2022)
Several values for one entry are separate records, joined by “and”; a condition that tells them apart may be missing. Identical values can stand only once.

Columns and labels:
SJSA-1 tumor = assay: Efficacy on SJSA-1 tumor-bearing nude rat (tumor volume); assay type: in vivo; conditions: for tumor regression in average: one week post treatment
[1] = tested on: white blood cells (WBC), neutrophils and platelets; assay: White blood cells, neutrophils and platelets count (Sysmex); assay type: in vivo, nude rat
Source text: The white blood cells (WBC), neutrophils and platelets were counted using a Sysmex (XT-2000i).
Blood was collected into commercially prepared EDTA coated microtubes (BD Microtainer, cat #365975).

Cleaved Caspase-3 = assay: Caspase-3 activation in SJSA-1 tumor (immunohistochemistry); assay type: in vivo, nude rat; conditions: higher single dose; 24 h post-treatment
Protocol: All tissues were processed to FFPE according to routine procedures and following fixation, rat sternum was decalcified in Citrate/EDTA buffer for 5 days, with buffer exchange every 24 h. Sections were cut at 3 μm using a microtome. p21 and cleaved Caspase-3 immunohistochemistry was performed on a Ventana Discovery XT automated immunostainer using the OmniMap anti Mouse or Rabbit HRP secondary reagent and the ChromoMap DAB chromogen system (Ventana/Roche Diagnostics GmbH, Mannheim, Germany). Antigen retrieval was done by using Cell Conditioning Discovery CC1 (Ventana/Roche Diagnostics) at mild (95° 8 min+100° 20 min, for cleaved Caspase-3) or standard (95° 8 min+100° 36 min, for p21) conditions. The primary antibody was applied manually at the desired dilution in Dako antibody diluent, followed by incubation for 1 hour at room temperature. Corresponding negative controls were incubated with AbD only. Counterstaining of sections was done using hematoxylin (Ventana/Roche Diagnostics). After the automated staining run, slides were dehydrated in a graded series of ethanol, cleared in xylene and mounted with Pertex mounting medium.

[2] = i.v. q3w 13.7 mg/kg, week 1 post treatment
[3] = i.v. q3w 13.7 mg/kg, week 2 post treatment
[4] = i.v. q3w 18.2 mg/kg, week 1 post treatment
[5] = i.v. q3w 18.2 mg/kg, week 2 post treatment
[6] = i.v. q3w 18.2 mg/kg, week 3 post treatment
[7] = i.v. q3w 18.2 mg/kg, week 5 post treatment
[8] = i.v. q3w 20 mg/kg, three weeks post first treatment
[9] = p.o. q3w 27 mg/kg, before the second treatment

SMILES: COc1ncc(-c2nc3c(n2C(C)C)[C@H](c2ccc(Cl)cc2)N(c2cc(Cl)cn(C)c2=O)C3=O)c(OC)n1 [Compound A, (S)-5-(5-Chloro-1-methyl-2-oxo-1,2-dihydro-pyridin-3-yl)-6-(4-chloro-phenyl)-2-(2,4-dimethoxy-pyrimidin-5-yl)-1-isopropyl-5,6-dihydro-1H-pyrrolo[3,4-d]imidazol-4-one]
- tumor cell density (SJSA-1 tumor; higher single dose, 48 and 72 h post-treatment): dramatic decrease
- tumor growth (SJSA-1 tumor; i.v. 13.7 mg/kg, after two weeks): re-growing
- tumor regression in average (SJSA-1 tumor; i.v. 13.7 mg/kg): 66%
- tumor regression in average (SJSA-1 tumor; i.v. 18.2 mg/kg): 88%
- tumor regression (SJSA-1 tumor; i.v. 18.2 mg/kg, three weeks post treatment): 36%
- CR (SJSA-1 tumor; [2]): 1/6
- ΔTvol (%) (SJSA-1 tumor; [2]): −66 ± 9%
- CR (SJSA-1 tumor; [3]): 0/6
- ΔTvol (%) (SJSA-1 tumor; [3]): 4 ± 37%
- CR (SJSA-1 tumor; [4]): 0/5
- ΔTvol (%) (SJSA-1 tumor; [4]): −80 ± 2%
- CR (SJSA-1 tumor; [5]): 2/5
- ΔTvol (%) (SJSA-1 tumor; [5]): −79 ± 11%
- CR (SJSA-1 tumor; [6]): 2 and 2/5
- ΔTvol (%) (SJSA-1 tumor; [6]): −36 ± 37%
- CR (SJSA-1 tumor; [7]): 2/5
- ΔTvol (%) (SJSA-1 tumor; [7]): 22 ± 63%
- CR (SJSA-1 tumor; i.v. q3w 18.2 mg/kg, week 6 post treatment): 2/5
- ΔTvol (%) (SJSA-1 tumor; i.v. q3w 18.2 mg/kg, week 6 post treatment (after the second treatment)): 118% and 118 ± 104%
- rats with complete response (100% regression) (SJSA-1 tumor; [8]): 3
- rats with progressive disease (SJSA-1 tumor; [8]): 1
- rats with stable disease (SJSA-1 tumor; [8]): 1
- effect of combining two dosing schedules (SJSA-1 tumor; intermittent (15 mg/kg once) plus daily dosing (1.5 mg/kg)): highly synergistic effect
- tumor regression (SJSA-1 tumor; p.o. q3w 20 mg/kg, three weeks post first treatment): 27%
- SJSA-1 tumor regression (SJSA-1 tumor; p.o. q3w 27 mg/kg, after one cycle (three weeks post first treatment)): 88%
- response of regrown tumors to retreatment (SJSA-1 tumor; retreated i.v. at 15 mg/kg): still sensitive
- tumors with incomplete response and regrowth (SJSA-1 tumor; single i.v. 20 mg/kg): 2 of 11
- tumor regression (SJSA-1 tumor; single i.v. 20 mg/kg, 14 days post treatment): 92%
- complete SJSA-1 tumor response (100% regression), share of treated rat (SJSA-1 tumor; single i.v. 20 mg/kg, for 42 days): 82%
- recovery of WBCs, neutrophils and platelets ([1]; i.v. q3w 18.2 mg/kg, day 21 post second treatment): only partially recovered
- WBCs, neutrophils and platelets ([1]; i.v. q3w 20 mg/kg, after the first treatment): dramatic decrease
- WBCs, neutrophils and platelets ([1]; i.v. q3w 20 mg/kg, after the second treatment): extremely low level close to 0
- recovery of WBCs, neutrophils and platelets ([1]; i.v. q3w 20 mg/kg, day 21 post treatment, most rats): only partially recovered
- WBCs, neutrophils and platelets ([1]; i.v. q3w 13.7 and 18.2 mg/kg, after the first treatment): strong decrease
- recovery of WBCs, neutrophils and platelets ([1]; i.v. q3w 13.7 and 18.2 mg/kg, day 21 post treatment): fully recovered
- recovery of WBCs and platelets ([1]; p.o. q3w 20 mg/kg, before the second treatment): fully recovered
- recovery of WBCs [1, 9]: only partially
- recovery of platelets [1, 9]: fully recovered
- WBCs, neutrophils and platelets ([1]; p.o. q3w 20 and 27 mg/kg): dose-dependent decrease
- caspase-3 activation in tumor (Cleaved Caspase-3): strong caspase-3 activation
